Measured values as given in patent US20260022143A1, “Cyclic Peptide Inhibitors of IL-23” (JANSSEN PHARMACEUTICA NV, priority 2022, published 2026).
Starred links: 1 amine or outer side, 2 acyl side, 3 side chain; linkers in the order of their positions; H or OH if unused. Positions of bridges follow the written chain, without caps; N, C: chain ends. Non-standard residues stand in square brackets, D forms with d. Residues, ends and D or L forms follow the SMILES beside them. *: point of attachment. Me3N+(CH2)2O(CH2)2O(CH2)2CO = C[N+](C)(C)CCOCCOCCC(=O)*; Trp(7-Me) = Cc1cccc2c(C[C@H](N)C(=O)O)c[nH]c12; Abu(4-yl) = O=C([C@H](CC[*:3])N[*:1])[*:2]; Hexanoyl(6-NMe3+) = C[N+](C)(C)CCCCCC(=O)*; 2Nal = N[C@@H](Cc1ccc2ccccc2c1)C(=O)O; X22 = CN1CC[N+](C)(CCOCCOCC*)CC1; 3Pal = N[C@@H](Cc1cccnc1)C(=O)O; Lys(Me) = CNCCCC[C@H](N)C(=O)O; Pen = CC(C)(S)[C@H](N)C(=O)O; αMeC = C[C@](N)(CS)C(=O)O; Thp = NC1(C(=O)O)CCOCC1; X3 = C[N+](C)(C)CCCCC*; Sar = CNCC(=O)O

How the values were obtained:
[1] = Exposed Polar Surface Area (EPSA); format: physicochemical; conditions: SFC on Chirex 3014 column; sample 1 mM DMSO stock; read-out: EPSA
Outline: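 Retention-based polarity: supercritical CO2 with 20 mM ammonium formate in MeOH (5–60%, 20%/min), Chirex 3014 column, 35 °C. Calibrated against 8 standards to give EPSA (Å^2); each sample measured twice.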

[2] = target: T1, IL-23R (Homo sapiens, UniProt Q5VWK5); test: IL23R Reporter Assay; format: cell-based; conditions: HEK293 cells containing IL-23R, IL-12RP1 and STAT-inducible firefly luciferase reporter; 10 ng/mL IL-23 (EC90); 5 h at 37° C.; read-out: IL23R Reporter Assay
T1 construct: host or cells: HEK293
T1 sequence (Q5VWK5 24-629): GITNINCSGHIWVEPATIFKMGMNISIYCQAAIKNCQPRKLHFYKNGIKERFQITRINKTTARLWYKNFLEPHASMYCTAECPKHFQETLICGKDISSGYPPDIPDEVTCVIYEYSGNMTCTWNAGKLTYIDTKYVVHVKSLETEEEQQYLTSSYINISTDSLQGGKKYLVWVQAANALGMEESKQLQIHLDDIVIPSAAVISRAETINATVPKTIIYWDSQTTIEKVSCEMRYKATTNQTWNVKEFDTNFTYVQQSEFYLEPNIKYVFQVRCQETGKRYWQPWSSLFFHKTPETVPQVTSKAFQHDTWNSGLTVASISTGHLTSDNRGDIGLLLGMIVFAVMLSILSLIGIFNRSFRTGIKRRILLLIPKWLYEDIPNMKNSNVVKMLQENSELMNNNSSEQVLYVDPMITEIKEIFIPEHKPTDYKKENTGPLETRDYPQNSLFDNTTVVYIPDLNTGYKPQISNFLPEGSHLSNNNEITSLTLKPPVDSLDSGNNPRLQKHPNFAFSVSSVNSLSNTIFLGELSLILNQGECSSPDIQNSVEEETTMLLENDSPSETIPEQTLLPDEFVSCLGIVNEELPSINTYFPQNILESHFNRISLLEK

EPSA [1]	IC50 [2]	SMILES
156 A^2	2 nM	CC(=O)N(C)CCCC[C@@H]1NC(=O)[C@H](Cc2c[nH]c3c(C)cccc23)NC(=O)[C@H]([C@@H](C)O)NC(=O)[C@H](CC(=O)N(C)C)NC(=O)[C@@H](NC(=O)CCCCC[N+](C)(C)C)C(C)(C)SSC(C)(C)[C@@H](C(=O)N[C@@H](Cc2ccc(OCCCCC[N+](C)(C)C)cc2)C(=O)N[C@@H](Cc2ccc3ccccc3c2)C(=O)NC2(C(=O)N[C@@H](CCCCN(C)C(C)=O)C(=O)N[C@@H](CC(N)=O)C(=O)N[C@@H](Cc3cccnc3)C(=O)N(C)CC(=O)N(C)C)CCOCC2)NC1=O [compound 343, 5cpaCO-Pen(3)-N(N(Me)2)-T-7MeW-K(NMeAc)-Pen(3)-TMAPF-2Nal-THP-K(NMeAc)-N-3Pya-Sar-CON(Me)2] ({Hexanoyl(6-NMe3+)}-[Pen]D(NMe2)T[Trp(7-Me)][Lys(Me)](Ac)[Pen]Y(X3)[2Nal][Thp][Lys(Me)](Ac)N[3Pal][Sar]-NMe2; disulfide 1-6)
139 A^2	3 nM	CC(=O)N(C)CCCC[C@@H]1NC(=O)[C@H](Cc2c[nH]c3c(C)cccc23)NC(=O)[C@H]([C@@H](C)O)NC(=O)[C@H](CC(=O)N(C)C)NC(=O)[C@@H](NC(=O)CCOCCOCC[N+](C)(C)C)C(C)(C)SSC(C)(C)[C@@H](C(=O)N[C@@H](Cc2ccc(OCCOCCOCC[N+]3(C)CCN(C)CC3)cc2)C(=O)N[C@@H](Cc2ccc3ccccc3c2)C(=O)NC2(C(=O)N[C@@H](CCCCN(C)C(C)=O)C(=O)N[C@@H](CC(N)=O)C(=O)N[C@@H](Cc3cccnc3)C(=O)N(C)CC(=O)N(C)C)CCOCC2)NC1=O [compound 224, cPEG3aCO-Pen(3)-N(N(Me)2)-T-7MeW-K(NMeAc)-Pen(3)-MPzPEG3F-2Nal-THP-K(NMeAc)-N-3Pya-Sar-CON(Me)2] ({Me3N+(CH2)2O(CH2)2O(CH2)2CO}-[Pen]D(NMe2)T[Trp(7-Me)][Lys(Me)](Ac)[Pen]Y(X22)[2Nal][Thp][Lys(Me)](Ac)N[3Pal][Sar]-NMe2; disulfide 1-6)
230 A^2	18 nM	CC(=O)NCCCC[C@@H]1NC(=O)[C@H](Cc2c[nH]c3ccccc23)NC(=O)[C@H]([C@@H](C)O)NC(=O)[C@H](CC(N)=O)NC(=O)[C@@H](NC(=O)[C@@H](CCCNC(=N)N)NC(=O)CCOCCOCC[N+](C)(C)C)CCSC[C@@](C)(C(=O)N[C@@H](Cc2ccc(OCCCCC[N+](C)(C)C)cc2)C(=O)N[C@@H](Cc2ccc3ccccc3c2)C(=O)NC2(C(=O)N[C@@H](CCCCNC(C)=O)C(=O)N[C@@H](CC(N)=O)C(=O)N[C@@H](Cc3cccnc3)C(=O)N(C)CC(N)=O)CCOCC2)NC1=O [compound 518, cPEG3aCO-r-Abu(1)-N-T-W-K(Ac)-aMeC(1)-TMAPF-2Nal-THP-K(Ac-N-3Pya-Sar-CONH2] ({Me3N+(CH2)2O(CH2)2O(CH2)2CO}-[dR][Abu(4-yl)]NTWK(Ac)[αMeC]Y(X3)[2Nal][Thp]K(Ac)N[3Pal][Sar]-NH2; thioether 2-7)
205 A^2	> 7350 nM	CC(=O)N(C)CCCC[C@@H]1NC(=O)[C@H](C)NC(=O)[C@H]([C@@H](C)O)NC(=O)[C@H](CC(=O)N(C)C)NC(=O)[C@@H](NC(=O)CCOCCOCC[N+](C)(C)C)C(C)(C)SSC(C)(C)[C@@H](C(=O)N[C@@H](Cc2ccc(OCCCCC[N+](C)(C)C)cc2)C(=O)N[C@@H](Cc2ccc3ccccc3c2)C(=O)NC2(C(=O)N[C@@H](CCCCN(C)C(C)=O)C(=O)N[C@@H](CC(N)=O)C(=O)N[C@@H](Cc3cccnc3)C(=O)N(C)CC(=O)N(C)C)CCOCC2)NC1=O [compound 512, cPEG3aCO-Pen(3)-N(N(Me)2)-T-A-K(NMeAc)-Pen(3)-TMAPF-2Nal-THP-K(NMeAc)-N-3Pya-Sar-CONMe2] ({Me3N+(CH2)2O(CH2)2O(CH2)2CO}-[Pen]D(NMe2)TA[Lys(Me)](Ac)[Pen]Y(X3)[2Nal][Thp][Lys(Me)](Ac)N[3Pal][Sar]-NMe2; disulfide 1-6)
